In patent US8962020B2, “Long-acting and controlled release formulations of 2-[(3-chlorophenyl) amino] phenylacetic acid” (Glycadia Inc., priority 2012, dated 2015):

What was measured:
[1] = Plasma 23CPPA after oral graduated doses of nonformulated 23CPPA to normal men; format: in vivo
Procedure: Plasma concentrations of 23CPPA were measured in samples obtained at timed intervals after oral administration of graduated doses of nonformulated 23CPPA to normal men.

[2] = Pharmacokinetics following oral administration of 23CPPA in rats for fourteen days; format: in vivo; settings: for Tmax / half-life: rat, plasma
Procedure: (§1) Rats (Charles River Laboratories) received 23CPPA orally at dosages of 25 and 75 mg per kg per day for fourteen days. Samples were obtained at timed intervals following administration for measurement of plasma concentrations of 23CPPA and pharmacokinetic analysis, and tissue was histopathologically examined at the end termination of the study period.

[3] = Gastric histopathology following oral administration of 23CPPA in rats for fourteen days; format: in vivo
Procedure: as §1

[4] = pKa (acid dissociation constant); format: physicochemical; settings: pharmaceutically acceptable salts of 23CPPA such as potassium; read-out: pKa (logarithm of the acid dissociation constant)

## O=C(O)Cc1ccccc1Nc1cccc(Cl)c1 [Granule 23CPPA, 2-[(3-chlorophenyl)amino] phenylacetic acid]
[1]; relative dose 1
  Plasma 23CPPA (peak concentration): 7 nmol/mL
[1]; relative dose 2
  Plasma 23CPPA (peak concentration): 19 nmol/mL
[1]; relative dose 5
  Plasma 23CPPA (peak concentration): 44 nmol/mL
[1]; relative dose 10
  Plasma 23CPPA (peak concentration): 64 nmol/mL
[1]; relative dose 15
  Plasma 23CPPA (peak concentration): 70 nmol/mL
[1]; relative dose 20
  Plasma 23CPPA (peak concentration): 74 nmol/mL
[2]; 25 and 75 mg per kg per day
  time of maximum plasma concentration of drug after administration: 0.25 h
[2]; 25 mg/kg/day for fourteen days
  Tmax: 0.25 h
  half-life: 2.3 h
[2]; 75 mg/kg/day for fourteen days
  Tmax: 0.25 h
  half-life: 2.3 h
[3]; 25 mg/kg/day for fourteen days
  Gastric Histopathology: Edema/inflammation: Edema/inflammation (20) % animals
[3]; 75 mg/kg/day for fourteen days
  Gastric Histopathology: Edema/inflammation: Edema/inflammation (30) % animals
[4]
  pKa: 4
